Reference: ChEMBL document CHEMBL4411307, “N,N'-diaryl-bishydrazones in a biphenyl platform: Broad spectrum antifungal agents” (Eur J Med Chem, 2019)
Values after ≈ are worked out from the molar mass of the structure shown. Active and inactive are the calls of the source. The calls are words filed in the database; no cut-off is given here.

Experiments:
Candida albicans [1] = test: Antifungal activity against fluconazole/ITC-resistant Candida albicans ATCC 10231 measured after 48 hrs by CLSI M27-A3 protocol based method; type: functional; settings: ATCC 10231, 48 h
Candida albicans [2] = test: Antifungal activity against fluconazole/ITC-resistant Candida albicans ATCC 64124 measured after 48 hrs by CLSI M27-A3 protocol based method; type: functional; settings: ATCC 64124, 48 h
Candida albicans [3] = test: Antifungal activity against fluconazole/ITC-susceptible Candida albicans ATCC MYA-2876 measured after 48 hrs by CLSI M27-A3 protocol based method; type: functional; settings: ATCC MYA-2876, 48 h
Candida albicans [4] = test: Antifungal activity against fluconazole/ITC-resistant Candida albicans ATCC 90819 measured after 48 hrs by CLSI M27-A3 protocol based method; type: functional; settings: ATCC 90819, 48 h
Candida albicans [5] = test: Antifungal activity against fluconazole/ITC-susceptible Candida albicans ATCC MYA-2310 measured after 48 hrs by CLSI M27-A3 protocol based method; type: functional; settings: ATCC MYA-2310, 48 h
Candida albicans [6] = test: Antifungal activity against fluconazole/ITC-resistant Candida albicans ATCC MYA-1237 measured after 48 hrs by CLSI M27-A3 protocol based method; type: functional; settings: ATCC MYA-1237, 48 h
Candida albicans [7] = test: Antifungal activity against fluconazole/ITC-resistant Candida albicans ATCC MYA-1003 measured after 48 hrs by CLSI M27-A3 protocol based method; type: functional; settings: ATCC MYA-1003, 48 h
Nakaseomyces glabratus = test: Antifungal activity against Candida glabrata ATCC 2001 measured after 48 hrs by CLSI M27-A3 protocol based method; type: functional; settings: CBS 138, 48 h
Pichia kudriavzevii = test: Antifungal activity against Candida krusei ATCC 6258 measured after 48 hrs by CLSI M27-A3 protocol based method; type: functional; settings: ATCC 6258, 48 h
Candida parapsilosis = test: Antifungal activity against Candida parapsilosis ATCC 22019 measured after 48 hrs by CLSI M27-A3 protocol based method; type: functional; settings: Lodderomyces parapsilosis, ATCC 22019, 48 h
Aspergillus flavus = test: Antifungal activity against Aspergillus flavus ATCC MYA-3631 measured after 48 hrs by CLSI M38-A2 protocol based method; type: functional; settings: ATCC MYA-3631, 48 h
Aspergillus nidulans = test: Antifungal activity against Aspergillus nidulans ATCC 38163 measured after 48 hrs by CLSI M38-A2 protocol based method; type: functional; settings: ATCC 38163, 48 h
Aspergillus terreus = test: Antifungal activity against Aspergillus terreus ATCC MYA-3633 measured after 48 hrs by CLSI M38-A2 protocol based method; type: functional; settings: ATCC MYA-3633, 48 h
Listeria monocytogenes = test: Antibacterial activity against Listeria monocytogenes; type: functional, organism-based
Staphylococcus aureus = test: Antibacterial activity against methicillin-resistant Staphylococcus aureus; type: functional, organism-based
Enterococcus = test: Antibacterial activity against vancomycin-resistant Enterococcus; type: functional, organism-based

Row | Compound | MIC (Candida albicans [1]) [µg/mL] | MIC (Candida albicans [2]) [µg/mL] | MIC (Candida albicans [3]) [µg/mL] | MIC (Candida albicans [4]) [µg/mL] | MIC (Candida albicans [5]) [µg/mL] | MIC (Candida albicans [6]) [µg/mL] | MIC (Candida albicans [7]) [µg/mL] | MIC (Nakaseomyces glabratus) [µg/mL] | MIC (Pichia kudriavzevii) [µg/mL] | MIC (Candida parapsilosis) [µg/mL] | MIC (Aspergillus flavus) [µg/mL] | MIC (Aspergillus nidulans) [µg/mL] | MIC (Aspergillus terreus) [µg/mL] | Activity (Listeria monocytogenes) | Activity (Staphylococcus aureus) | Activity (Enterococcus)
1 | N=C(N)N/N=C/c1ccc(-c2ccc(/C=N/NC(=N)N)cc2)cc1 | 31.3 (≈ 97.1 µM) | > 31.3 | > 31.3 | > 31.3 | > 31.3 | > 31.3 | 15.6 (≈ 48.4 µM) | > 31.3 | 15.6 (≈ 48.4 µM) | 3.9 (≈ 12.1 µM) | > 31.3 | > 31.3 | > 31.3 |  |  | 
2 | COc1cccc(N/N=C(\C)c2ccc(-c3ccc(/C(C)=N/Nc4cccc(OC)c4)cc3)cc2)c1 | 0.98 (≈ 2.05 µM) | 0.98 (≈ 2.05 µM) | 15.6 (≈ 32.6 µM) | 31.3 (≈ 65.4 µM) | 15.6 (≈ 32.6 µM) | 31.3 (≈ 65.4 µM) | 3.9 (≈ 8.15 µM) | 15.6 (≈ 32.6 µM) | 0.98 (≈ 2.05 µM) | 15.6 (≈ 32.6 µM) | > 31.3 | > 31.3 | > 31.3 | inactive | inactive | inactive
3 | COc1ccccc1N/N=C(\C)c1ccc(-c2ccc(/C(C)=N/Nc3ccccc3OC)cc2)cc1 | 15.6 (≈ 32.6 µM) | > 31.3 | > 31.3 | > 31.3 | > 31.3 | > 31.3 | 31.3 (≈ 65.4 µM) | > 31.3 | 31.3 (≈ 65.4 µM) | 31.3 (≈ 65.4 µM) | > 31.3 | > 31.3 | > 31.3 | inactive | inactive | inactive
4 | CC[C@H](C)C[C@H](C)CCCCCCCCC(=O)N[C@H]1C[C@@H](O)[C@@H](NCCN)NC(=O)[C@@H]2[C@@H](O)CCN2C(=O)[C@H]([C@H](O)CCN)NC(=O)[C@H]([C@H](O)[C@@H](O)c2ccc(O)cc2)NC(=O)[C@@H]2C[C@@H](O)CN2C(=O)[C@H]([C@@H](C)O)NC1=O [CASPOFUNGIN] | 0.975 (≈ 0.892 µM) | 0.24 (≈ 0.22 µM) | 0.06 (≈ 0.0549 µM) | 0.12 (≈ 0.11 µM) | 0.12 (≈ 0.11 µM) | 0.24 (≈ 0.22 µM) | 0.48 (≈ 0.439 µM) | 0.06 (≈ 0.0549 µM) | 0.48 (≈ 0.439 µM) | 1.95 (≈ 1.78 µM) | > 31.3 | > 31.3 | > 31.3 |  |  | 
5 | Clc1ccc(N/N=C/c2ccc(-c3ccc(/C=N/Nc4ccc(Cl)cc4)cc3)cc2)cc1 | > 31.3 | > 31.3 | > 31.3 | > 31.3 | > 31.3 | > 31.3 | > 31.3 | > 31.3 | 31.3 (≈ 68.1 µM) | 31.3 (≈ 68.1 µM) | > 31.3 | > 31.3 | 31.3 (≈ 68.1 µM) | inactive | inactive | inactive
6 | Clc1ccc(N/N=C/c2ccc(-c3cccc(/C=N/Nc4ccc(Cl)cc4)c3)cc2)cc1 | 7.8 (≈ 17 µM) | 7.8 (≈ 17 µM) | 15.6 (≈ 34 µM) | 15.6 (≈ 34 µM) | 31.3 (≈ 68.1 µM) | 15.6 (≈ 34 µM) | 3.9 (≈ 8.49 µM) | 15.6 (≈ 34 µM) | 31.3 (≈ 68.1 µM) | 3.9 (≈ 8.49 µM) | > 31.3 | > 31.3 | > 31.3 | inactive | inactive | inactive
7 | Brc1ccc(N/N=C/c2ccc(-c3ccc(/C=N/Nc4ccc(Br)cc4)cc3)cc2)cc1 | > 31.3 | > 31.3 | > 31.3 | > 31.3 | > 31.3 | > 31.3 | > 31.3 | > 31.3 | > 31.3 | 31.3 (≈ 57.1 µM) | > 31.3 | > 31.3 | > 31.3 | inactive | inactive | inactive
8 | CC(C)(C)N/N=C/c1ccc(-c2ccc(/C=N/NC(C)(C)C)cc2)cc1 | 31.3 (≈ 89.3 µM) | 31.3 (≈ 89.3 µM) | > 31.3 | > 31.3 | 31.3 (≈ 89.3 µM) | 31.3 (≈ 89.3 µM) | > 31.3 | 15.6 (≈ 44.5 µM) | 31.3 (≈ 89.3 µM) | > 31.3 | > 31.3 | 31.3 (≈ 89.3 µM) | > 31.3 | inactive | inactive | inactive
9 | Fc1cccc(N/N=C/c2ccc(-c3ccc(/C=N/Nc4cccc(F)c4F)cc3)cc2)c1F | 31.3 (≈ 67.7 µM) | > 31.3 | > 31.3 | > 31.3 | > 31.3 | > 31.3 | > 31.3 | > 31.3 | > 31.3 | > 31.3 | > 31.3 | > 31.3 | > 31.3 | inactive | inactive | inactive
10 | COc1ccc(N/N=C(\C)c2ccc(-c3ccc(/C(C)=N/Nc4ccc(OC)cc4)cc3)cc2)cc1 | 15.6 (≈ 32.6 µM) | 15.6 (≈ 32.6 µM) | 15.6 (≈ 32.6 µM) | 31.3 (≈ 65.4 µM) | 15.6 (≈ 32.6 µM) | 7.8 (≈ 16.3 µM) | 7.8 (≈ 16.3 µM) | 7.8 (≈ 16.3 µM) | 15.6 (≈ 32.6 µM) | > 31.3 | > 31.3 | > 31.3 | > 31.3 | inactive | inactive | inactive
11 | C/C(=N\NC(=N)N)c1ccc(-c2ccc(/C(C)=N/NC(=N)N)cc2)cc1 | 3.9 (≈ 11.1 µM) | 3.9 (≈ 11.1 µM) | 15.6 (≈ 44.5 µM) | 3.9 (≈ 11.1 µM) | 15.6 (≈ 44.5 µM) | 15.6 (≈ 44.5 µM) | 15.6 (≈ 44.5 µM) | 7.8 (≈ 22.3 µM) | 3.9 (≈ 11.1 µM) | 1.95 (≈ 5.56 µM) | > 31.3 | 15.6 (≈ 44.5 µM) | > 31.3 |  |  | 
12 | Fc1cccc(N/N=C/c2ccc(-c3cccc(/C=N/Nc4cccc(F)c4F)c3)cc2)c1F | > 31.3 | > 31.3 | > 31.3 | > 31.3 | > 31.3 | > 31.3 | > 31.3 | > 31.3 | > 31.3 | > 31.3 | > 31.3 | > 31.3 | > 31.3 | inactive | inactive | inactive
13 | Fc1cc(F)cc(N/N=C/c2ccc(-c3cccc(/C=N/Nc4cc(F)cc(F)c4)c3)cc2)c1 | 3.9 (≈ 8.43 µM) | 15.6 (≈ 33.7 µM) | 31.3 (≈ 67.7 µM) | > 31.3 | > 31.3 | 31.3 (≈ 67.7 µM) | 31.3 (≈ 67.7 µM) | > 31.3 | > 31.3 | > 31.3 | > 31.3 | > 31.3 | > 31.3 | inactive | inactive | inactive
14 | Fc1cc(F)cc(N/N=C/c2ccc(-c3ccc(/C=N/Nc4cc(F)cc(F)c4)cc3)cc2)c1 | 15.6 (≈ 33.7 µM) | > 31.3 | > 31.3 | > 31.3 | > 31.3 | > 31.3 | > 31.3 | > 31.3 | > 31.3 | > 31.3 | > 31.3 | > 31.3 | > 31.3 | inactive | inactive | inactive
15 | CC(C)Oc1ccc(N/N=C/c2ccc(-c3ccc(/C=N/Nc4ccc(OC(C)C)cc4)cc3)cc2)cc1 | > 31.3 | > 31.3 | > 31.3 | > 31.3 | > 31.3 | > 31.3 | > 31.3 | > 31.3 | > 31.3 | > 31.3 | > 31.3 | > 31.3 | > 31.3 | inactive | inactive | inactive
16 | Brc1ccc(N/N=C/c2ccc(-c3cccc(/C=N/Nc4ccc(Br)cc4)c3)cc2)cc1 | 31.3 (≈ 57.1 µM) | 31.3 (≈ 57.1 µM) | 31.3 (≈ 57.1 µM) | > 31.3 | > 31.3 | 7.8 (≈ 14.2 µM) | 31.3 (≈ 57.1 µM) | 7.8 (≈ 14.2 µM) | > 31.3 | > 31.3 | 31.3 (≈ 57.1 µM) | > 31.3 | > 31.3 | inactive | inactive | inactive
17 | Fc1ccccc1N/N=C/c1ccc(-c2ccc(/C=N/Nc3ccccc3F)cc2)cc1 | 3.9 (≈ 9.14 µM) | > 31.3 | 15.6 (≈ 36.6 µM) | 31.3 (≈ 73.4 µM) | > 31.3 | > 31.3 | 15.6 (≈ 36.6 µM) | > 31.3 | 3.9 (≈ 9.14 µM) | > 31.3 | > 31.3 | 31.3 (≈ 73.4 µM) | > 31.3 | inactive | inactive | inactive
